Results on two compounds are retold here after patent US20180077928A1, “INSECT REPELLENT FIBER AND INSECT REPELLENT SCREEN USING SAME” (priority 2015, published 2018).

Series [1] is described as follows: Acceptable Daily Intake (ADI) set by WHO and FAO; acceptable intake used in evaluation criteria. Further details: species or system human. Particulars: person/child who weighs 15 kg, calculated from ADI. As for the experimental part: When the amount of the insect repellent 4 (permethrin) exposed to the surface of the insect repellent fiber 1 is less than 0.4 μg per gram of the insect repellent fiber 1, the insect repellent effect cannot be sufficiently exerted. […] The WHO and FAO (Food and Agriculture Organization of the United Nations) have investigated harmful effects of permethrin to a human body on the basis of a large amount of data obtained by animal tests and the like. According to the investigation results, the amount of permethrin that can be ingested by human over a lifetime without an appreciable health risk, or also referred to as ADI (Acceptable Daily Intake), is set to “0.05 mg/day/kg”. For example, for people who weigh 15 kg (weight of around a child), this value per day is calculated to be 0.75 mg. This means that permethrin of such an amount may be continually ingested without an appreciable health risk. […]
The safety was evaluated according to the following evaluation criteria by assuming a situation that a child who weighs 15 kg licked a whole area of a screen door in which the insect repellent screen having an area of 1 m^2 was installed. […] It is noted that when the insert repellent screen was evaluated as “good”, the insect repellent screen was determined to be safe.

For series [2] the following is noted: human, over a lifetime without appreciable health risk; WHO and FAO; cited from earlier work.

On to `CCOc1ccc(C(C)(C)COCc2cccc(Oc3ccccc3)c2)cc1` [ethofenprox], for which, in series [1], the “acceptable intake per day” value was 0.45 mg. Consider `CC1(C)C(C=C(Cl)Cl)C1C(=O)OCc1cccc(Oc2ccccc2)c1` (stereo not drawn) [permethrin], for which the “ADI (Acceptable Daily Intake)” value in series [2] is listed as 0.05 mg/day/kg. Also, in series [1], the “acceptable intake per day” value is 0.75 mg.
